According to patent US8962674B2 (Tokyo Institute of Technology, priority 2006, dated 2015):

| Compound | melting point [°C] |
| --- | --- |
| CN(C)c1ccccc1/C=C/C(=O)CC(=O)/C=C/c1ccc(O)cc1 [CU495, (1E,6E)-1-(2-dimethylaminophenyl)-7-(4-hydroxyphenyl)hepta-1,6-diene-3,5-dione] | 68 to 72 |
| CS(=O)(=O)n1cc(/C=C/C(=O)CC(=O)/C=C/c2ccc(O)cc2)c2ccccc21 [CU401, (1E,6E)-1-(4-hydroxyphenyl)-7-[1-(methylsulfonyl)-1H-indol-3-yl]hepta-1,6-diene-3,5-dione] | 196 to 200 |
| CCN(CC)c1ccc(/C=C/C(=O)CC(=O)/C=C/c2ccc(O)cc2)c(OC(=O)c2ccccc2)c1 [CU425, (1E,6E)-1-(2-benzoyloxy-4-diethylaminophenyl)-7-(4-hydroxyphenyl)hepta-1,6-diene-3,5-dione] | 212 to 215 |
| CSc1ccccc1/C=C/C(=O)CC(=O)/C=C/c1ccc(O)cc1 [CU484, (1E,6E)-1-(4-hydroxyphenyl)-7-[2-(methylthio)phenyl]hepta-1,6-diene-3,5-dione] | 157 to 160 |
| O=C(/C=C/c1ccc(O)cc1)CC(=O)/C=C/c1cc(OCc2ccc(Cl)cc2Cl)ccc1[N+](=O)[O-] [CU493, (1E,6E)-1-[5-(2,4-dichlorobenzyloxy)-2-nitrophenyl]-7-(4-hydroxyphenyl)hepta-1,6-diene-3,5-dione] | 157 to 161 |
| Cc1ccc(S(=O)(=O)n2cc(/C=C/C(=O)CC(=O)/C=C/c3ccc(O)cc3)c3ccccc32)cc1 [CU403, (1E,6E)-1-(4-hydroxyphenyl)-7-(1-tosyl-1H-indol-3-yl)hepta-1,6-diene-3,5-dione] | 218 to 222 |
| O=C(/C=C/c1ccc(O)c(Cl)c1)CC(=O)CCc1ccc(O)cc1 [CU546, (E)-1-(3-chloro-4-hydroxyphenyl)-7-(4-hydroxyphenyl)hept-1-ene-3,5-dione] | 45 to 51 |
| CS(=O)(=O)N1CCN(c2ccccc2/C=C/C(=O)CC(=O)/C=C/c2ccc(O)cc2)CC1 [CU500, (1E,6E)-1-(4-hydroxyphenyl)-7-{2-[4-(methylsulfonyl)piperazin-1-yl]phenyl}hepta-1,6-diene-3,5-dione] | 126 to 131 |
| O=C(/C=C/c1ccc(O)cc1)CC(=O)/C=C/c1ccc(Br)cc1N1CCN(CCO)CC1 [CU502, (1E,6E)-1-{4-bromo-2-[4-(2-hydroxyethyl)piperazin-1-yl]phenyl}-7-(4-hydroxyphenyl)hepta-1,6-diene-3,5-dione] | 127 to 133 |
| CCN(CC)c1ccc(/C=C/C(=O)CC(=O)/C=C/c2ccc(O)cc2)c(OCc2c(F)cccc2Cl)c1 [CU450, (1E,6E)-1-[2-(2-chloro-6-fluorobenzyloxy)-4-diethylaminophenyl]-7-(4-hydroxyphenyl)hepta-1,6-diene-3,5-dione] | 172 to 175 |
| CS(=O)(=O)c1ccc(/C=C/C(=O)CC(=O)/C=C/c2ccc(O)cc2)cc1 [CU203, (1E,6E)-1-(4-hydroxyphenyl)-7-(4-methanesulfonylphenyl)hepta-1,6-diene-3,5-dione] | 221 to 224 |
| O=C(/C=C/c1ccc(O)cc1)CC(=O)/C=C/c1ccc(-n2ccnc2)cc1 [CU329, (1E,6E)-1-(4-hydroxyphenyl)-7-[4-(1H-imidazol-1-yl)phenyl]hepta-1,6-diene-3,5-dione] | 255 to 260 |
| CCN(CC)c1ccc(/C=C/C(=O)CC(=O)/C=C/c2ccc(O)cc2)c(OCc2ccc(OC)cc2)c1 [CU448, (1E,6E)-1-[4-diethylamino-2-(4-methoxybenzyloxy)phenyl]-7-(4-hydroxyphenyl)hepta-1,6-diene-3,5-dione] | 71 to 78 |
| COc1cc(N(C)C)ccc1/C=C/C(=O)CC(=O)/C=C/c1ccc(N(C)C)cc1OC [CU410, (1E,6E)-1,7-bis(4-dimethylamino-2-methoxyphenyl)hepta-1,6-diene-3,5-dione] | 76 to 86 |
| O=C(/C=C/c1cn(Cc2ccccc2)c2ccccc12)CC(=O)/C=C/c1cn(Cc2ccccc2)c2ccccc12 [CU397, (1E,6E)-1,7-bis(1-benzyl-1H-indol-3-yl)hepta-1,6-diene-3,5-dione] | 206 to 213 |
| O=C(/C=C/c1cc(O)ccc1Br)CC(=O)CCc1ccc(O)cc1 [CU549, (E)-1-(2-bromo-5-hydroxyphenyl)-7-(4-hydroxyphenyl)hept-1-ene-3,5-dione] | 161 to 165 |
| O=C(/C=C/c1ccc(Oc2ccccc2)cc1)CC(=O)/C=C/c1ccc(Oc2ccccc2)cc1 [CU370, (1E,6E)-1,7-bis(4-phenoxyphenyl)hepta-1,6-diene-3,5-dione] | 193 to 196 |
| O=C(/C=C/c1ccc(O)cc1)CC(=O)/C=C/c1ccccc1N1CCN(CCO)CC1 [CU501, (1E,6E)-1-{2-[4-(2-hydroxyethyl)piperazin-1-yl]phenyl}-7-(4-hydroxyphenyl)hepta-1,6-diene-3,5-dione] | 102 to 110 |
| O=C(/C=C/c1cccc2ncccc12)CC(=O)/C=C/c1cccc2ncccc12 [CU384, (1E,6E)-1,7-bis(quinolin-5-yl)hepta-1,6-diene-3,5-dione] | 170 to 174 |
| O=C(/C=C/c1ccc(O)cc1)CC(=O)/C=C/c1ccccc1-c1ccc2ccccc2c1 [CU529, (1E,6E)-1-(4-hydroxyphenyl)-7-[2-(naphthalen-2-yl)phenyl]hepta-1,6-diene-3,5-dione] | 105 to 114 |

Other lines, results leading:

| melting point [°C] | Compound |
| --- | --- |
| 120 to 130 | COc1ccc(/C=C/C(=O)CC(=O)/C=C/c2ccc(O)cc2Cl)cc1O [CU130, (1E,6E)-1-(2-chloro-4-hydroxyphenyl)-7-(3-hydroxy-4-methoxyphenyl)hepta-1,6-diene-3,5-dione] |
| 125 to 130 | COc1cc(/C=C/C(=O)CC(=O)/C=C/c2cc(O)ccc2O)ccc1O [CU106, (1E,6E)-1-(2,5-dihydroxyphenyl)-7-(4-hydroxy-3-methoxyphenyl)hepta-1,6-diene-3,5-dione] |
| 80 to 86 | COc1ccc(O)c(/C=C/C(=O)CC(=O)/C=C/c2ccc(OC)c(O)c2)c1 [CU089, (1E,6E)-1-(2-hydroxy-5-methoxyphenyl)-7-(3-hydroxy-4-methoxyphenyl)hepta-1,6-diene-3,5-dione] |
| 45 to 46 | COc1cc(/C=C/C(=O)CC(=O)/C=C/c2ccc(Oc3ccccc3)cc2)ccc1O [CU004, (1E,6E)-1-(4-hydroxy-3-methoxyphenyl)-7-(4-phenoxyphenyl)hepta-1,6-diene-3,5-dione] |
| 74 to 80 | COc1cccc(/C=C/C(=O)CC(=O)/C=C/c2ccc(O)cc2)c1 [CU158, (1E,6E)-1-(4-hydroxyphenyl)-7-(3-methoxyphenyl)hepta-1,6-diene-3,5-dione] |
| 181 to 185 | COc1ccc(/C=C/C(=O)CC(=O)/C=C/c2c(O)cccc2OC)cc1O [CU280, (1E,6E)-1-(2-hydroxy-6-methoxyphenyl)-7-(3-hydroxy-4-methoxyphenyl)hepta-1,6-diene-3,5-dione] |
| 180 to 184 | COc1cc(/C=C/C(=O)CC(=O)/C=C/c2ccc3ccn(Cc4ccccc4)c3c2)ccc1O [CU443, (1E,6E)-1-(1-benzyl-1H-indol-6-yl)-7-(4-hydroxy-3-methoxyphenyl)hepta-1,6-diene-3,5-dione] |
| 77 to 83 | COc1cc(/C=C/C(=O)CC(=O)/C=C/c2ccccc2O)ccc1O [CU082, (1E,6E)-1-(4-hydroxy-3-methoxyphenyl)-7-(2-hydroxyphenyl)hepta-1,6-diene-3,5-dione] |
| 149 to 152 | COc1cc(/C=C/C(=O)CC(=O)/C=C/c2ccc3c(c2)OCO3)ccc1O [CU009, (1E,6E)-1-(benzo[1,3]dioxol-5-yl)-7-(4-hydroxy-3-methoxyphenyl)hepta-1,6-diene-3,5-dione] |
| 124 to 130 | COc1cc(/C=C/C(=O)CC(=O)/C=C/c2ccc(Cl)cc2Cl)ccc1O [CU144, (1E,6E)-1-(2,4-dichlorophenyl)-7-(4-hydroxy-3-methoxyphenyl)hepta-1,6-diene-3,5-dione] |
| 70 to 74 | COc1ccc(OC)c(/C=C/C(=O)CC(=O)/C=C/c2ccc(O)cc2)c1 [CU075, (1E,6E)-1-(2,5-dimethoxyphenyl)-7-(4-hydroxyphenyl)hepta-1,6-diene-3,5-dione] |
| 59 to 61 | COc1cc(/C=C/C(=O)CC(=O)/C=C/c2ccc(Cl)cc2)ccc1O [CU020, (1E,6E)-1-(4-chlorophenyl)-7-(4-hydroxy-3-methoxyphenyl)hepta-1,6-diene-3,5-dione] |
| 176 to 183 | COc1ccc(/C=C/C(=O)CC(=O)/C=C/c2cc(Cl)cc(Cl)c2)cc1O [CU141, (1E,6E)-1-(3,5-dichlorophenyl)-7-(3-hydroxy-4-methoxyphenyl)hepta-1,6-diene-3,5-dione] |
| 203 to 210 | COc1cc(/C=C/C(=O)CC(=O)/C=C/c2ccc(N(C)C)cc2[N+](=O)[O-])ccc1O [CU192, (1E,6E)-1-(4-dimethylamino-2-nitrophenyl)-7-(4-hydroxy-3-methoxyphenyl)hepta-1,6-diene-3,5-dione] |
| 169 to 175 | COc1cccc(/C=C/C(=O)CC(=O)/C=C/c2ccc(O)cc2)c1O [CU249, (1E,6E)-1-(2-hydroxy-3-methoxyphenyl)-7-(4-hydroxyphenyl)hepta-1,6-diene-3,5-dione] |
| 102 to 108 | COc1ccc(/C=C/C(=O)CC(=O)/C=C/c2ccccc2OC)cc1O [CU068, (1E,6E)-1-(3-hydroxy-4-methoxyphenyl)-7-(2-methoxyphenyl)hepta-1,6-diene-3,5-dione] |
| 50 to 55 | COc1cc(/C=C/C(=O)CC(=O)/C=C/c2ccc(O)c(OC)c2)cc(OC)c1 [CU100, (1E,6E)-1-(3,5-dimethoxyphenyl)-7-(4-hydroxy-3-methoxyphenyl)hepta-1,6-diene-3,5-dione] |
| 64 to 70 | COc1ccc(/C=C/C(=O)CC(=O)/C=C/c2ccc(OC)c(O)c2)c(OC)c1 [CU074, (1E,6E)-1-(2,4-dimethoxyphenyl)-7-(3-hydroxy-4-methoxyphenyl)hepta-1,6-diene-3,5-dione] |
| 137 to 140 | COc1ccc(/C=C/C(=O)CC(=O)/C=C/c2ccc(OC)c(O)c2)cc1 [CU065, (1E,6E)-1-(3-hydroxy-4-methoxyphenyl)-7-(4-methoxyphenyl)hepta-1,6-diene-3,5-dione] |
| 94 to 99 | COc1cccc(O)c1/C=C/C(=O)CC(=O)/C=C/c1ccc(O)cc1 [CU275, (1E,6E)-1-(2-hydroxy-6-methoxyphenyl)-7-(4-hydroxyphenyl)hepta-1,6-diene-3,5-dione] |
